Values joined by “and” are separate entries in the source; they are usually repeats but may differ in a detail not shown here. Equal values may be shown once.
Tests used:
in vitro [1] = assay type: cell-based, canine; conditions: dog
Procedure: (§1) The 3-(4,5-dimethylthiazol-2-yl)-2,5-diphenyltetrazolium bromide (MTT) method was performed to assess the cytotoxicity of target compounds in MDCK cells and HEK293T cells. Firstly, MDCK cells or HEK293T cells were seeded into the 96-well plate. Then, the media containing test compounds replaced the growth media after 48 h. Incubate MDCK cells or HEK293T cells with test compounds for 72 h at 37 °C in a humidified 5% CO2 incubator. Later, MTT solution (5 mg/mL in PBS) was added into each well and plates were incubated for 4 h at 37 °C. Then, add a solubilization solution to lyse cells. Finally, absorbance was read at 620 nm using an ELISA plate reader (Tecan Sunrise) after 3 h of further incubation at 37 °C. We set the values obtained from the wells treated with only DMSO as 100% of viable cells.

MDCK cells = test: in vitro; assay type: cell-based, canine; conditions: dog, 72 h
Procedure: as §1

in vitro [2] = assay type: cell-based; conditions: human
Procedure: as §1

HEK293T cells = test: in vitro; assay type: cell-based; conditions: human, 72 h
Procedure: as §1

[3] = system: influenza virus A/WSN/33 (H1N1); test: microbe, parasite or virus in culture; assay type: cell-based; conditions: MDCK, 72 h; for inhibition at 12.5 µM / inhibition at 25 µM / inhibition at 50 µM / inhibition at 100 µM: H1N1|WSN, read-out: Antiviral activity in CPE assay; for EC50: read-out: Cytopathic Effect Assay (A/WSN/33, H1N1) EC50
[4] = system: influenza virus A/WSN/33 (H1N1); test: Plaque inhibition assay in MDCK cells; assay type: cell-based; conditions: MDCK, read-out: Plaque Inhibition Assay (A/WSN/33, H1N1) Inhibition Rate; for inhibition at 12.5 µM: concentration 12.5 µM; for inhibition at 100 µM: concentration 100 µM
PA-PB1 endonuclease = system: PA-PB1 endonuclease; parameters: method as in supplement 1-7; conditions: training and test set compounds collected from literature; ref supplement 1-7; read-out: IC50 value Experimental (PA-PB1 endonuclease inhibitors); cited from earlier work

Row | SMILES | CC50 at 72 h (in vitro [1]) [µM] | MDCK cells survival rate (MDCK cells; 12.5 µmol·L−1) [%] | MDCK cells survival rate (MDCK cells; 25 µmol·L−1) [%] | MDCK cells survival rate (MDCK cells; 50 µmol·L−1) [%] | MDCK cells survival rate (MDCK cells; 100 µmol·L−1) [%] | CC50 at 72 h (in vitro [2]) [µM] | HEK293T cells survival rate (HEK293T cells; 3.125 µmol·L−1) [%] | HEK293T cells survival rate (HEK293T cells; 6.25 µmol·L−1) [%] | HEK293T cells survival rate (HEK293T cells; 12.5 µmol·L−1) [%] | HEK293T cells survival rate (HEK293T cells; 25 µmol·L−1) [%] | HEK293T cells survival rate (HEK293T cells; 50 µmol·L−1) [%] | HEK293T cells survival rate (HEK293T cells; 100 µmol·L−1) [%] | inhibition at 12.5 µM [3] [%] | inhibition at 25 µM [3] [%] | inhibition at 50 µM [3] [%] | inhibition at 100 µM [3] [%] | EC50 [3] [µM] | melting point [°C] | IC50 (PA-PB1 endonuclease) | other results
1 | O=C(NC1CCCCC1)c1ccc(Nc2ccnc3cc(C(F)(F)F)ccc23)cc1 [Compound G09, N-Cyclohexyl-4-{[7-(trifluoromethyl)quinolin-4-yl]amino}benzamide] | > 100 | 156.36±6.13 | 124.74±4.87 | 130.46±12.65 | 133.61±3.89 | > 100 | 106.48±6.90 | 98.20±3.74 | 92.83±3.70 | 96.79±0.62 | 101.55±2.23 | 81.22±3.80 | 31.9 ± 0.69 | 22.9 ± 3.9 | 21.4 ± 0.92 | 23.2 ± 3.9 | > 100 | 236.5 to 237.3 |  | inhibition at 12.5 µM [4]: 46.9%
2 | COc1ccccc1OCCNC(=O)c1ccc(Nc2ccnc3ccc(Br)cc23)cc1 [Compound G24, N-[2-(2-Methoxyphenoxy)ethyl]-4-[(6-bromoquinolin-4-yl)amino]benzamide] | > 100 | 97.97±11.82 | 71.98±13.89 | 87.44±3.70 | 105.38±8.08 | > 100 | 113.31±4.70 | 96.70±5.40 | 91.88±3.61 | 91.06±10.23 | 69.53±3.05 | 72.95±4.52 | 21 ± 2.86 | 19.2 ± 0.69 | 19.2 ± 0.42 | 18.4 ± 1.27 | > 100 | 240.5 to 241.3 |  | inhibition at 100 µM [4]: < 10%
3 | CCN(CC)CCCNC(=O)c1ccc(Nc2ccnc3cc(C(F)(F)F)ccc23)cc1 [Compound G06, N-[3-(Diethylamino)propyl]-4-{[7-(trifluoromethyl)quinolin-4-yl]amino}benzamide] | > 100 | 95.22±3.96 | 96.67±0.91 | 84.01±5.28 | 79.75±2.72 | > 100 | 107.15±2.76 | 90.35±0.85 | 96.59±4.26 | 85.50±2.49 | 85.25±2.63 | 76.47±9.94 | 16.7 ± 1.15 | 13.1 ± 0.69 | 12.8 ± 0.69 | 11.2 ± 0.23 | > 100 | 216.5 to 219.3 |  | inhibition at 12.5 µM [4]: < 10%
4 | Cc1cc(-c2ccccc2)n2nc(C(=O)Nc3sc4c(c3C(N)=O)CCC4)nc2n1 [Compound H03] |  |  |  |  |  |  |  |  |  |  |  |  |  |  |  |  |  |  | 6.2 µM and 7.5 µM | 
5 | Cc1cc(-c2ccccc2)n2nc(C(=O)Nc3sc4c(c3C(N)=O)CCCCC4)nc2n1 [Compound H01] |  |  |  |  |  |  |  |  |  |  |  |  |  |  |  |  |  |  | 1.1 µM | 
6 | O=C(NCc1ccccc1)c1ccc(Nc2ccnc3cc(C(F)(F)F)ccc23)cc1 [Compound G11, N-Benzyl-4-{[7-(trifluoromethyl)quinolin-4-yl]amino}benzamide] | > 100 | 148.07±0.17 | 123.28±5.69 | 127.54±0.33 | 137.86±9.32 | > 100 | 129.49±22.76 | 101.78±7.08 | 105.25±12.82 | 108.76±5.63 | 103.77±9.35 | 86.44±8.60 | 47.7 ± 9.63 | 52.4 ± 3.44 | 44.1 ± 1.38 | 47.3 ± 0.92 | 7.17 ± 1.53 | 263.4 to 265.8 |  | inhibition at 100 µM [4]: 50%
7 | CCC(C)NC(=O)c1ccccc1NC(=O)c1cccc(S(=O)(=O)Nc2ccccc2)c1 (stereo not shown) [Compound H04] |  |  |  |  |  |  |  |  |  |  |  |  |  |  |  |  |  |  | 9.2 µM | 
8 | O=C1c2ccccc2C(=O)c2c1cc(Nc1ccccc1)c1nsnc21 [Compound H10] |  |  |  |  |  |  |  |  |  |  |  |  |  |  |  |  |  |  | 9.5 µM | 
9 | O=C(c1ccc(Nc2ccnc3cc(C(F)(F)F)ccc23)cc1)N1CCN(c2cccc(C(F)(F)F)c2)CC1 [Compound G16, {4-[3-(Trifluoromethyl)phenyl]piperazin-1-yl}{4-{[7-(trifluoromethyl)quinolin-4-yl]amino}phenyl}methanone] | > 100 | 83.03±1.26 | 85.52±2.56 | 92.23±7.81 | 103.91±10.21 | > 100 | 89.31±3.06 | 79.52±2.87 | 80.26±3.54 | 75.35±5.51 | 70.68±3.36 | 66.51±2.68 | 15.7 ± 1.33 | 36.8 ± 3.16 | 33.8 ± 2.71 | 45.7 ± 2.09 | > 100 | 217 to 218.5 |  | 
10 | O=C(NCCCN1CCOCC1)c1ccc(Nc2ccnc3cc(C(F)(F)F)ccc23)cc1 [Compound G08, N-(3-Morpholinopropyl)-4-{[7-(trifluoromethyl)quinolin-4-yl]amino}benzamide] | > 100 | 95.86±1.24 | 76.43±4.79 | 75.20±0.25 | 78.41±2.97 | > 100 | 100.86±3.39 | 97.00±3.10 | 95.72±3.30 | 95.56±2.29 | 98.07±1.80 | 112.13±1.41 | 44.3 ± 3.44 | 45.6 ± 9.4 | 31.1 ± 8.71 | 15.4 ± 0.23 | > 100 | 207.3 to 209.1 |  | inhibition at 25 µM ([4]; concentration 25 µM): 11.5%
11 | NC(=O)c1c(NC(=O)c2nc3nc(-c4ccccc4)cc(C(F)(F)F)n3n2)sc2c1CCCC2 [Compound H02, N-(3-carbamoyl-4,5,6,7-tetrahydrobenzo[b]thiophen-2-yl)-5-phenyl-7-(trifluoromethyl)-[1,2, 4]triazolo[1,5-a]pyrimidine-2-carboxamide] |  |  |  |  |  |  |  |  |  |  |  |  |  |  |  |  |  |  | 7.5 µM and 6.2 µM | 
12 | O=C(O)c1ccc(Nc2ccnc3cc(C(F)(F)F)ccc23)cc1 [4-{[7-(Trifluoromethyl)quinolin-4-yl]amino}benzoic acid] |  |  |  |  |  |  |  |  |  |  |  |  |  |  |  |  | 22.9 | 323.7 to 324.9 |  | inhibition at 50 µM ([4]; concentration 50 µM): 50%

— article PMC9181126, “Design, Synthesis, Molecular Docking Analysis and Biological Evaluations of 4-[(Quinolin-4-yl)amino]benzamide Derivatives as Novel Anti-Influenza Virus Agents” (International Journal of Molecular Sciences, 2022)
